In patent US9738660B2, “Selective inhibitors for protein kinases and pharmaceutical composition and use thereof” (National Chiao Tung University, priority 2014, dated 2017):
pIC50: −log10 of the molar value. Like-named read-outs stand apart in the source and are kept apart here.

Assays:
CDK2 = CDK2 (Homo sapiens, UniProt P24941); experiment: Kinase Profiler, residual kinase activity; type: biochemical; conditions: read-out: percentage of the remaining kinase activity
LCK = LCK (Homo sapiens, UniProt P06239); experiment: Kinase Profiler, residual kinase activity; type: biochemical; conditions: read-out: percentage of the remaining kinase activity
STK16 = molecular target: T1, STK16 (Homo sapiens, UniProt O75716); experiment: Kinase Profiler, residual kinase activity; type: biochemical; conditions: read-out: percentage of the remaining kinase activity
T1 construct: purchased Research Biology Corp. (http://www.reactionbiology.com)
Method in brief: (§1)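 Data derive from a fee-for-service profiling run in which each inhibitor is screened against forty protein kinases.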

GSG2 = molecular target: T2, GSG2 (Homo sapiens, UniProt Q8TF76); experiment: Kinase Profiler, residual kinase activity; type: biochemical; conditions: read-out: percentage of the remaining kinase activity
T2 sequence (Q8TF76 1-798): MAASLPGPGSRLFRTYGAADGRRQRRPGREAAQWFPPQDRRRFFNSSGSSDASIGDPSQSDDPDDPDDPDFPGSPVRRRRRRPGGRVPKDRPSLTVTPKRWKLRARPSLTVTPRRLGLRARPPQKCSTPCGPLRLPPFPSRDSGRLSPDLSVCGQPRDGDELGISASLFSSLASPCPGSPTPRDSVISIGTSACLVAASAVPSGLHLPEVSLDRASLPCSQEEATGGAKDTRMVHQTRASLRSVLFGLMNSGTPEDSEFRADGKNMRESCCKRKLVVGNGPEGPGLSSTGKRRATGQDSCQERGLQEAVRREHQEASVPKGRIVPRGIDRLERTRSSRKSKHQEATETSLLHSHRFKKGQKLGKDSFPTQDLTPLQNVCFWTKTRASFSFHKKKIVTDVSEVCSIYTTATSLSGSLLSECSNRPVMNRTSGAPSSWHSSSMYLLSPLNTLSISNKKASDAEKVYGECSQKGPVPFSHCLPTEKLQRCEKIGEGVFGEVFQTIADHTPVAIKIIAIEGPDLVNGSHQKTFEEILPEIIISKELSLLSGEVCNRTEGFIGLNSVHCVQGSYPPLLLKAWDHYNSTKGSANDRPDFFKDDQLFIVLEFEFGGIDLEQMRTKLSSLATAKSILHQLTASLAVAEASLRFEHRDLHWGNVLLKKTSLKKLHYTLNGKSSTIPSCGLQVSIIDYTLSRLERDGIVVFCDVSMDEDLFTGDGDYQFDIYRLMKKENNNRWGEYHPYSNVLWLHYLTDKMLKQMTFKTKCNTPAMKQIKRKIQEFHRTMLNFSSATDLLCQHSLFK
Method in brief: as §1

KDR = KDR (Homo sapiens, UniProt P35968); experiment: Kinase Profiler, residual kinase activity; type: biochemical; conditions: read-out: percentage of the remaining kinase activity
Method in brief: as §1

MAP2K1 = molecular target: T3, MAP2K1 (Homo sapiens, UniProt Q02750); experiment: Kinase Profiler, residual kinase activity; type: biochemical; conditions: read-out: percentage of the remaining kinase activity
T3 construct: purchased Research Biology Corp. (http://www.reactionbiology.com)
Method in brief: as §1

MAPKAPK2 = molecular target: T4, MAPKAPK2 (Homo sapiens, UniProt P49137); experiment: Kinase Profiler, residual kinase activity; type: biochemical; conditions: read-out: percentage of the remaining kinase activity
T4 construct: purchased Research Biology Corp. (http://www.reactionbiology.com)

RPS6KB1 = molecular target: T5, RPS6KB1 (Homo sapiens, UniProt P23443); experiment: Kinase Profiler, residual kinase activity; type: biochemical; conditions: read-out: percentage of the remaining kinase activity
T5 construct: purchased Research Biology Corp. (http://www.reactionbiology.com)

[1] = tested on: 40 types of protein kinases; experiment: Selectivity over the panel of 40 protein kinases; type: biochemical; conditions: 500 nM; inhibited = residual kinase activity less than or equal to 50%
Source text: Kinase Profiler services provided by […]. (http://www.reactionbiology.com) were used to analyze the data of the 9 type-S protein kinase inhibitors against the 40 types of protein kinases.

[2] = tested on: gastric cancer cell line MKN-45; experiment: MTT cell survival test on gastric cancer cells; type: cell-based; conditions: Homo sapiens; MKN-45, MTT, 24 hours, serum-free media; read-out: IC50 value for inhibiting gastric cancer cell line MKN-45
Description: Gastric cancer cell line MKN-45 was incubated on a 96-well plate (about 1×10^4 cells/well). After the cells adhered, the 96-well plate was replaced with serum-free culture media, and different concentrations (from 40 to 0.039 μM) of drugs were added. After incubating at 37° C. for 24 hours, PBS was used for washing three times, and MTT culture media was added to react with cells. Violet crystals appeared after two hours. Then, DMSO (50 μl) was added to terminate the reaction. A light-absorbing micro-volume spectrophotometer (ELISA reader) was used, and an absorption value of 570 nm was obtained. A blank value was deducted from each of the obtained absorbance values, and then the difference was divided by the value of the control group to calculate a percentage, i.e., a cell survival rate. The experiment was repeated three times to obtain an average value and a standard deviation.

T4 sequence (P49137 whole entry): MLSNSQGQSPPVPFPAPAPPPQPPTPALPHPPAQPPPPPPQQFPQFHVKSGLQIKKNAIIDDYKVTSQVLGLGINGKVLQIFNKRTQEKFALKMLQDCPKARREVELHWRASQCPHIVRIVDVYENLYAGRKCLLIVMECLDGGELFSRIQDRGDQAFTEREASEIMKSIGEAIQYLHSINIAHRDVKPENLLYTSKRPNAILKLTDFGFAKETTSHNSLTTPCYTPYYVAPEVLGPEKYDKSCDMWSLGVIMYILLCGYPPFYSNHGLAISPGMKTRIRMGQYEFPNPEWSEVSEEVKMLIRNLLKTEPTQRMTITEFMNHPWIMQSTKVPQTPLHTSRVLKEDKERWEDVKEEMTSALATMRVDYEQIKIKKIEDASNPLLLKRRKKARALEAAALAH
Sequence of LCK (P06239 whole entry): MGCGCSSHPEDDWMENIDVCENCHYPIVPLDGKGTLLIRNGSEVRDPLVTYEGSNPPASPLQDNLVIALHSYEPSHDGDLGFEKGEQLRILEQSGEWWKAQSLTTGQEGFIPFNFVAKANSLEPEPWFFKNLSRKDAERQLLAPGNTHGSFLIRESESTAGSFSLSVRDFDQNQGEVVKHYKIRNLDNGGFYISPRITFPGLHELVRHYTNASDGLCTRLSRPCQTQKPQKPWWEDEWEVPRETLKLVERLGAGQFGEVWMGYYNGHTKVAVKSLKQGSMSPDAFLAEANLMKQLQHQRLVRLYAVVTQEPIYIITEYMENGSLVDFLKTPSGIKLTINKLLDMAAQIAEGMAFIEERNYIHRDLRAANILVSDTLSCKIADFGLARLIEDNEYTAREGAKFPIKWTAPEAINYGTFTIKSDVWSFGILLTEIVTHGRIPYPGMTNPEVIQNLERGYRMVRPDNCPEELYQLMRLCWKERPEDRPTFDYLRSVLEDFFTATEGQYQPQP
T1 sequence (O75716 whole entry): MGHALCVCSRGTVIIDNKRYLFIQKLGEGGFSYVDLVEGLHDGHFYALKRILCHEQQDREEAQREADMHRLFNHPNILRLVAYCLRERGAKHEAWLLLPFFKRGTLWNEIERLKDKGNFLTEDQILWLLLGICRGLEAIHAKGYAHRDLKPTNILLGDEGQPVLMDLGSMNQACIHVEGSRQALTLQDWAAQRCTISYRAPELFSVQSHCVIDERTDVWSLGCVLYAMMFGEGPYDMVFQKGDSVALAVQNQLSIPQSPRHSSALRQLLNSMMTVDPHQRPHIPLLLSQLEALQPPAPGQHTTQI
T5 sequence (P23443 whole entry): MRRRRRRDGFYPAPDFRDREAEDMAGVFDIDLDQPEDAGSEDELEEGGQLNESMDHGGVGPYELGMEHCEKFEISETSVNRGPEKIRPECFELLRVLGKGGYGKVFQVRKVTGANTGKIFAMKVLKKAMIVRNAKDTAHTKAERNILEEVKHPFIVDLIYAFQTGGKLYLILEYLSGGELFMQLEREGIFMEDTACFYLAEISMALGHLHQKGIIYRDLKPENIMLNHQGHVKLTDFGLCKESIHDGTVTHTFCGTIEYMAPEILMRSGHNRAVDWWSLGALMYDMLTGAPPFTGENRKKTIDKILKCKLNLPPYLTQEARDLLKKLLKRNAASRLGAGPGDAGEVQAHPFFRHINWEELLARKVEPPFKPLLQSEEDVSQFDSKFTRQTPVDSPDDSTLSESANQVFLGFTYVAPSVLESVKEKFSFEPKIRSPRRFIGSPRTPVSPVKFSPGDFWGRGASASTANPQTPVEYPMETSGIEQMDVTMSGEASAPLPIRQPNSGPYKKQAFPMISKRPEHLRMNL
Sequence of KDR (P35968 20-1356): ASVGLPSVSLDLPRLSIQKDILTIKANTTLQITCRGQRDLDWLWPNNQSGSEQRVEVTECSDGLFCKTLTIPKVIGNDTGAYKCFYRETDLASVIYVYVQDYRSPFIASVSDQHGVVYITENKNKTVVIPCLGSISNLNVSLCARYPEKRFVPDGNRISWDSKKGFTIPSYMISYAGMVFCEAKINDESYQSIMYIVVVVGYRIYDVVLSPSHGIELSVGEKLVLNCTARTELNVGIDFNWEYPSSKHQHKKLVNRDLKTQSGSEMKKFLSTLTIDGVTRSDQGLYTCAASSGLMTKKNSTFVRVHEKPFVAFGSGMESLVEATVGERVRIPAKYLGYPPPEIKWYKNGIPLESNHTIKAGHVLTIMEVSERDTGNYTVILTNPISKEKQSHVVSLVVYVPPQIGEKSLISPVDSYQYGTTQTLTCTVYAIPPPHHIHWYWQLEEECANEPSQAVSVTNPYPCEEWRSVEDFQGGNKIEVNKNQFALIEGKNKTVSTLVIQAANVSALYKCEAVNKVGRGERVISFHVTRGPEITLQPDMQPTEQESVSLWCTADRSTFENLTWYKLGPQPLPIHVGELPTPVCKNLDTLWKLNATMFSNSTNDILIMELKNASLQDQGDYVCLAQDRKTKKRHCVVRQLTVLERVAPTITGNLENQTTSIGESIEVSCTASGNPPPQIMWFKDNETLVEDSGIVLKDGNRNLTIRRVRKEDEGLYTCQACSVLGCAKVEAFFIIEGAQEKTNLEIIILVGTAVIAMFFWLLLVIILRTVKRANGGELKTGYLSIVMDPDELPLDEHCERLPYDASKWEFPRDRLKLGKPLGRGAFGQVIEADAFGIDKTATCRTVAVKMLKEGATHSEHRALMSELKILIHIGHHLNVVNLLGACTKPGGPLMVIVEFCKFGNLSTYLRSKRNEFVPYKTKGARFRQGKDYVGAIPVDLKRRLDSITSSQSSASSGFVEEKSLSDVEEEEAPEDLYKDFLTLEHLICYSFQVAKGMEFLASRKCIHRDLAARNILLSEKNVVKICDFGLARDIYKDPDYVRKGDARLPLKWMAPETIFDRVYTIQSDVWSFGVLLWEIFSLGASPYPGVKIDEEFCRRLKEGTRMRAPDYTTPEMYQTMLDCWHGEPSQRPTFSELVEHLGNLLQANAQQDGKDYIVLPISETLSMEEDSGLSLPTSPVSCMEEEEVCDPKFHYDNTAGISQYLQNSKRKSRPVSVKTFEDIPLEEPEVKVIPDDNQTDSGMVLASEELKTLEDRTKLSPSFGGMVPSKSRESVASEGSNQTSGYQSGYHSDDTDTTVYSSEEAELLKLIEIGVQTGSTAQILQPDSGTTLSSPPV
T3 sequence (Q02750 whole entry): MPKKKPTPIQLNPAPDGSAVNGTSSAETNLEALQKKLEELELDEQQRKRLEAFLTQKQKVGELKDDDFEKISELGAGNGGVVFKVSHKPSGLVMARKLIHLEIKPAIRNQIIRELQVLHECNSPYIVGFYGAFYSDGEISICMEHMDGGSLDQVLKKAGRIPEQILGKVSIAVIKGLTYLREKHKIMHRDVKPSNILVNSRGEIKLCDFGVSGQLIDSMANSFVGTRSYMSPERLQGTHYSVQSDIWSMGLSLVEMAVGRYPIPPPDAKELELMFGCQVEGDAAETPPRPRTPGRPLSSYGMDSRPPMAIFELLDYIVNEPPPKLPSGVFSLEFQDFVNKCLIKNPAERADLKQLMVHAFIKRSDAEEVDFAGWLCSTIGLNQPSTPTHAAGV

Structure (SMILES)	remaining activity at 0.5 µM (CDK2; CDK2, inhibitor at 500 nM) [%]	remaining activity at 0.5 µM (LCK; LCK, inhibitor at 500 nM) [%]	remaining activity at 0.5 µM (STK16; STK16, inhibitor at 500 nM) [%]	remaining activity at 0.5 µM (GSG2; GSG2, inhibitor at 500 nM) [%]	remaining activity at 0.5 µM (KDR; KDR, inhibitor at 500 nM) [%]	remaining activity at 0.5 µM (MAP2K1; MAP2K1, inhibitor at 500 nM) [%]	remaining activity at 0.5 µM (MAPKAPK2; MAPKAPK2, inhibitor at 500 nM) [%]	remaining activity at 0.5 µM (RPS6KB1; RPS6KB1, inhibitor at 500 nM) [%]	percentage of the 40 types of protein kinases inhibited [1] [%]	pIC50 [2]	number of types of protein kinases inhibited out of 40 tested [1]	remaining activity at 0.5 µM (CDK2) [%]	remaining activity at 0.5 µM (LCK) [%]	remaining activity at 0.5 µM (STK16) [%]	remaining activity at 0.5 µM (GSG2) [%]	remaining activity at 0.5 µM (KDR) [%]	remaining activity at 0.5 µM (MAP2K1) [%]	remaining activity at 0.5 µM (MAPKAPK2) [%]	remaining activity at 0.5 µM (RPS6KB1) [%]
COC1C(N(C)C(=O)C(N)Cc2c[nH]cn2)CC2OC1(C)n1c3ccccc3c3c4c(c5c6ccccc6n2c5c31)C(=O)NC4 (centres unmarked) [Compound 1]	16.5	2.1	59	69.9	6.5	79.8	73.3	7.9											
COC1C(N(C)C(=O)C(N)Cc2cn(C(=O)OC(C)(C)C)c3ccccc23)CC2OC1(C)n1c3ccccc3c3c4c(c5c6ccccc6n2c5c31)C(=O)NC4 (centres unmarked) [Compound 2]	76.6	97	105	110	102	105	106	72.4	2.5										
COC1C(N(C)C(=O)C(N)Cc2ccc(OC(C)(C)C)cc2)CC2OC1(C)n1c3ccccc3c3c4c(c5c6ccccc6n2c5c31)C(=O)NC4 (centres unmarked) [Compound 4]	57.5	68.8	99.8	102	50.8	110	108	15.2	27.5	5.80	11								
COC1C(N(C)C(=O)C(N)Cc2ccc(O)cc2)CC2OC1(C)n1c3ccccc3c3c4c(c5c6ccccc6n2c5c31)C(=O)NC4 (centres unmarked) [Compound 5]	56.9	11.5	86.7	89.5	16.3	103	95.3	11.8											
COC1C(N(C)C(=O)C(N)CCC(=O)OC(C)(C)C)CC2OC1(C)n1c3ccccc3c3c4c(c5c6ccccc6n2c5c31)C(=O)NC4 (centres unmarked) [Compound 6]	55	44	94	88	42.4	101	105	15											
COC1C(N(C)C(=O)C(N)CCC(=O)O)CC2OC1(C)n1c3ccccc3c3c4c(c5c6ccccc6n2c5c31)C(=O)NC4 (centres unmarked) [Compound 7]	19.3	3	51.6	69.9	5.4	74.1	91.8	9.2											
COC1C(N(C)CCOc2cccc([N+](=O)[O-])c2)CC2OC1(C)n1c3ccccc3c3c4c(c5c6ccccc6n2c5c31)C(=O)NC4 (centres unmarked) [Compound 8]												12.3	24	94	89.8	43.3	72	94.6	11.8
COC1C(N(C)Cc2ccc(-c3ccccc3)cc2)CC2OC1(C)n1c3ccccc3c3c4c(c5c6ccccc6n2c5c31)C(=O)NC4 (centres unmarked) [Compound 9]	8.2	14	103	87.8	43.6	66.1	92.5	11.1											
CN[C@@H]1C[C@H]2O[C@@](C)([C@@H]1OC)n1c3ccccc3c3c4c(c5c6ccccc6n2c5c31)C(=O)NC4 [STU, staurosporine, reference compound]				9		11.5								52.5					
